Tested on: embryonic rat hippocampal cells
Assay: Apoptosis detection (TUNEL, DAPI counter-staining) in treated hippocampal cell cultures
Assay type: cell-based
Conditions: for apoptosis induced by cell death receptor pathway (Fas, TRAIL-R) in hippocampal cells: TSR peptide added to culture medium, 7 days of treatment; for number of apoptotic cells with death receptor ligand alone: FasL 20 ng/mL or TRAIL 80 ng/mL alone
Experimental: FIG. 2: Histogramm representing the percentage of apoptotic cells outside the clusters compared with the total number of cells, data provided by only one experiment realized in triplicate. In each assay, apoptotic labelling with TUNEL method were counted on 4 photos aleatory on each slide, and having always at least 1 neurosphere. The cultures were treated (cases TSR, FasL, TSR+FasL, TRAIL, TSR+TRAIL, FasL+TRAIL and TSR+FasL+TRAIL) or not treated (control, c) during 7 days with a TSR peptide concentration of 375 μg/mL and/or 20 ng/mL of FasL and/or 80 ng/mL of TRAIL).
Cultures of hippocampal cells from foetal rats: Cells were obtained from E18 rat brains. Tissues were removed in dissection medium (Hank's Balanced Salt Solution, HBSS plus antibiotics). Composition of dissection medium HBSS plus antibiotics): • potassium chloride (KCl): 400 mg/L • potassium phosphate (KH2PO4): 60 mg/L • sodium bicarbonate (NaHCO3): 350 mg/L • sodium chloride (NaCl): 8000 mg/L • sodium phosphate (Na2HPO4): 48 mg/L • D-glucose: 1000 mg/L • penicillin-streptomycin: 100 units/mL
Meninges were removed from the embryos brains and hippocampus was dissected in a sterile petri dish in HBSS plus antibiotic medium. After centrifugation cells were ressuspended in culture medium MEM with Earl Salts supplemented with B27, EGF, FGF-2 and antibiotics. The composition of the culture medium was the following: • L-arginine hydrochloride: […] • L-cystine: 24 mg/L • L-glutamine: 292 mg/L • L-histidine-H2O Hydrochloride: 42 mg/L • L-isoleucine: 52 mg/L • L-leucine 52 mg/L • L-lysine Hydrochloride: 73 mg/l, • L-methionine: 15 mg/L • L-phenylalanine: 32 mg/L • L-threonine: 48 mg/L • L-tryptophane: 10 mg/L • L-tyrosine: 36 mg/L • L-valine: 46 mg/L • choline Chloride: 1 mg/L • D-calcium pantothenate: 1 mg/L • folic acid: 1 mg/L • I-inositol: 2 mg/L • Niacinamide: 1 mg/L • pyridoxal Hydrochloride: 1 mg/L • Riboflavine: 0.1 mg/L • thiamine Hydrochloride: 1 mg/L • calcium chloride (CaCl2-2H2O): 264 mg/L • magnesium sulfate (MgSO4-7H2O): 200 mg/L • potassium chloride (KCl): 400 mg/L • sodium bicarbonate (NaHCO3): 2200 mg/L • sodium chloride (NaCl): 6800 mg/L • sodium phosphate (NaH2PO4-2H2O): 158 mg/L • D-glucose: 4500 mg/L • phenol red: 10 mg/L • Sodium pyruvate: 110.04 mg/L • B27 medium (Invitrogen) 50×: 2% v/v • EGF: 20 μg/L • FGF-2: 20 μg/L • Penicillin-streptomycin: 100 units/mL
Hippocampus fragments were dissociated mechanically with 1 syringe 1 ml and 1 needle 25G and added with 1 mL of culture medium then centrifuged at 1200 rpm for 10 min. The supernatant is then removed and the cell pellet is resupended in 1 mL of culture medium. Other mechanic dissociation was performed with a seringe 1 mL and a needle 25G. Cell count was determined with Malassez hemocytometer and viability of cells was evaluated by counting the cells which have not absorbed the Trypan blue. Then cells are seeded in 48-well plates, at 40 000 cells by well in 500 μL of culture medium, on culture dishes precovered with collagen.
Preparation of precovered dishes with collagen: After an incubation of 10 min in absolute ethanol, the glass dishes were sterilized by heating 2H at 120° C. Sterilized glass dishes (10 mm diameter) was put on culture well and covered with a 0.1 mg/mL collagen calf skin solution. After 1 hr incubation at 37° C., the excess of solution is removed and the plate is maintained one night under hood of culture in order to let dry the plates. Before use, the wells were washed twice with 200 μL sterile distillated water.
Treatment of embryonic rat hippocampal cells: After 5 days of culture, cells were cultured in medium without growth factors (MEM with Earl salts, B27 and antibiotics) with different conditions of treatment combinating TSR peptide (WSGWSSCSRSCG—SEQ ID No 8) (375 μg/mL), FasL (20 ng/mL) and TRAIL (80 ng/mL). […]

Molecule | number of apoptotic cells, apoptosis induced by FasL (TSR peptide 375 μg/mL + FasL 20 ng/mL, 7 days, compared to FasL culture, FIG. 2) | number of apoptotic cells, apoptosis induced by TRAIL (TSR peptide 375 μg/mL + TRAIL 80 ng/mL, 7 days, compared to TRAIL culture, FIG. 2) | level of apoptosis (final statement, presumably FasL+TRAIL culture) (TSR peptide 375 μg/mL, 7 days, FIG. 2, inducer not given) | apoptosis induced by cell death receptor pathway (Fas, TRAIL-R) in hippocampal cells | apoptosis induced by cell death receptor pathway (Fas, TRAIL-R) in hippocampal cells (listed as peptide TSR) | effect on basal apoptosis (number of apoptotic cells) (TSR peptide alone 375 μg/mL, 7 days, compared to control cultures, FIG. 2) | number of apoptotic cells with death receptor ligand alone (7 days, FIG. 2)
WSGWSSCSRSCG [TSR peptide, peptide derived from the TSR (thrombospondin type 1 units) of SCO-spondin] | decreased | decreased in the presence of TSR peptide to a level comparable to control cells | restores the basal level of apoptosis | inhibits the apoptosis | decreased | no effect | –
TRAIL: TNF-related apoptosis inducing ligand, cell death receptor ligand used to induce apoptosis (protein, UniProt P50591 1-281, looked up) Tumor necrosis factor ligand …: MAMMEVQGGPSLGQTCVLIVIFTVLLQSLCVAVTYVYFTNELKQMQDKYSKSGIACFLKEDDSYWDPNDEESMNSPCWQVKWQLRQLVRKMILRTSEETISTVQEKQQNISPLVRERGPQRVAAHITGTRGRSNTLSSPNSKNEKALGRKINSWESSRSGHSFLSNLHLRNGELVIHEKGFYYIYSQTYFRFQEEIKENTKNDKQMVQYIYKYTSYPDPILLMKSARNSCWSKDAEYGLYSIYQGGIFELKENDRIFVSVTNEHLIDMDHEASFFGAFLVG | – | – | – | – | – | – | more important than in the presence of FasL
FasL: Fas ligand, cell death receptor ligand of the TNF superfamily used to induce apoptosis (protein, UniProt P48023 130-281, looked up) Tumor necrosis factor ligand …: QIGHPSPPPEKKELRKVAHLTGKSNSRSMPLEWEDTYGIVLLSGVKYKKGGLVINETGLYFVYSKVYFRGQSCNNLPLSHKVYMRNSKYPQDLVMMEGKMMSYCTTGQMWARSSYLGAVFNLTSADHLYVNVSELSLVNFEESQTFFGLYKL | – | – | – | – | – | – | increased
